Results: patent US20260041667A1 (priority 2021, published 2026)

Key:
[1] = molecular target: hERG potassium channel current (IKr) (Homo sapiens, UniProt Q12809); conditions: Phase 1, 30 μM in protein free perfusate, n=3
Excerpt: This assay is employed as a screen to assess potential risks for QT interval prolongation.

Sprague Dawley rats = experiment: 14-day repeat-dose intranasal toxicity and toxicokinetic study in rats (Study 700041); conditions: rat
Beagle dogs = experiment: 14-day repeat-dose intranasal toxicity and toxicokinetic study in dogs (Study 62959); format: in vivo; conditions: dog
Description: Assessments of mortality, clinical signs, olfactory reflex, body weights, food consumption, ophthalmology, and electrocardiograms were performed.

[2] = intranasal 5 mg/kg/day, Day 1, Female
[3] = intranasal 5 mg/kg/day, Day 1, Male
[4] = intranasal 5 mg/kg/day, Day 14, Female
[5] = intranasal 5 mg/kg/day, Day 14, Male
[6] = intranasal 20 mg/kg/day, Day 1, Female
[7] = intranasal 20 mg/kg/day, Day 1, Male
[8] = intranasal 20 mg/kg/day, Day 14, Female
[9] = intranasal 20 mg/kg/day, Day 14, Male
[10] = intranasal 75 mg/kg/day, Day 1, Female
[11] = intranasal 75 mg/kg/day, Day 1, Male
[12] = intranasal 75 mg/kg/day, Day 14, Female
[13] = intranasal 75 mg/kg/day, Day 14, Male
[14] = intranasal 0.4 mg/kg/day, Day 1, Female
[15] = intranasal 0.4 mg/kg/day, Day 1, Male
[16] = intranasal 0.4 mg/kg/day, Day 14, Female
[17] = intranasal 0.4 mg/kg/day, Day 14, Male
[18] = intranasal 0.8 mg/kg/day, Day 1, Male
[19] = intranasal 0.8 mg/kg/day, Day 14, Male

hERG potassium channel current (IKr), sequence (Q12809 whole entry): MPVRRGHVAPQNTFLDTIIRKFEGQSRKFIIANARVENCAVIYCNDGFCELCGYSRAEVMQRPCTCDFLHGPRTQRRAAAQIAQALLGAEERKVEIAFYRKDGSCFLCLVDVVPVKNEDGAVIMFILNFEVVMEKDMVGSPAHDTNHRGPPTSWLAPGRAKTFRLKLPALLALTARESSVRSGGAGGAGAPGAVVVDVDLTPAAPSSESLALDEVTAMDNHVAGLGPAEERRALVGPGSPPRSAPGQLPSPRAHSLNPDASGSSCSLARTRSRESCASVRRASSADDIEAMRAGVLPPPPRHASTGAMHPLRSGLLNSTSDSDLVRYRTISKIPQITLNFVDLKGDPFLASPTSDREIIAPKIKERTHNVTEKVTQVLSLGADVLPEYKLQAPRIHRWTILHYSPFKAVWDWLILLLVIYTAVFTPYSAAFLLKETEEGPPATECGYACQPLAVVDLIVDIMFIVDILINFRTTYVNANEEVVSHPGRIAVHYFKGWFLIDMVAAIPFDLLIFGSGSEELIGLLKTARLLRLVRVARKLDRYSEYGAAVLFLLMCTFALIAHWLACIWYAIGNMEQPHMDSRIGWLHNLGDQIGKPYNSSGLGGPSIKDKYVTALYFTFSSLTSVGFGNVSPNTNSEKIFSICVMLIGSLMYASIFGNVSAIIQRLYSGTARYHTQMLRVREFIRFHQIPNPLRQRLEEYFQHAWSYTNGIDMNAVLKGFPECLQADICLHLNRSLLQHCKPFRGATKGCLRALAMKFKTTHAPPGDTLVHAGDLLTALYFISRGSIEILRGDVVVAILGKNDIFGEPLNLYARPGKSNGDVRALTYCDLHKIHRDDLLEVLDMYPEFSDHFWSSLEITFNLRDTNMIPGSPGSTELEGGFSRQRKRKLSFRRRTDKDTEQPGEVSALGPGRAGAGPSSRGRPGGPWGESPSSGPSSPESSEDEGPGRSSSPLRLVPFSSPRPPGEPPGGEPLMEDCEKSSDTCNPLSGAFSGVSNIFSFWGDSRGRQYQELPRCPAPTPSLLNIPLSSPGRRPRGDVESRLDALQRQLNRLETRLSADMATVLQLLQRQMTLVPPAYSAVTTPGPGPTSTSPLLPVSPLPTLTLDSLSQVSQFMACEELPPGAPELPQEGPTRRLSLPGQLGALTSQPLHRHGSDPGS

`COc1ccc2[nH]cc(CCN(C)C)c2c1` [Compound 5-MeO-DMT, 5-methoxy-N,N-dimethyltryptamine] was tested, and the “Inhibition of hERG potassium ion current” value [1] was 77.8±7.4%, the “AUC0-Tlast [SE]” value (Sprague Dawley rats; [2]) was 53.2 [15.9] h*ng/mL and the “AUCINF—obs” value (Sprague Dawley rats; [2]) was “(53.7) h*ng/mL”. For the same compound, the “Cmax [SE]” value (Sprague Dawley rats; [2]) was 186 [98.7] ng/mL, the Tmax (Sprague Dawley rats; [2]) was 9.96 min and the “AUC0-Tlast [SE]” value (Sprague Dawley rats; [3]) was 39.9 [7.35] h*ng/mL. The “AUCINF—obs” value (Sprague Dawley rats; [3]) was “(40.1) h*ng/mL”, the “Cmax [SE]” value (Sprague Dawley rats; [3]) was 191 [45.6] ng/mL and the “AUC0-Tlast [SE]” value (Sprague Dawley rats; [4]) was 63.8 [4.55] h*ng/mL. The “AUCINF—obs” value (Sprague Dawley rats; [4]) was “(64.0) h*ng/mL”, the “Cmax [SE]” value (Sprague Dawley rats; [4]) was 645 [106] ng/mL and the t1/2 (Sprague Dawley rats; [4]) was 6.78 min. For the same compound, the “AUC0-Tlast [SE]” value (Sprague Dawley rats; [5]) was 114 [13.8] h*ng/mL, the “AUCINF—obs” value (Sprague Dawley rats; [5]) was “(115) h*ng/mL” and the “Cmax [SE]” value (Sprague Dawley rats; [5]) was 627 [102] ng/mL. The “AUC0-Tlast [SE]” value (Sprague Dawley rats; [6]) was 198 [15.2] h*ng/mL, the “AUCINF—obs” value (Sprague Dawley rats; [6]) was “(198) h*ng/mL” and the “Cmax [SE]” value (Sprague Dawley rats; [6]) was 679 [162] ng/mL. For the same compound, the “AUC0-Tlast [SE]” value (Sprague Dawley rats; [7]) was 420 [62.1] h*ng/mL, the “AUCINF—obs” value (Sprague Dawley rats; [7]) was “(421) h*ng/mL” and the “Cmax [SE]” value (Sprague Dawley rats; [7]) was 4190 [1040] ng/mL. The t1/2 (Sprague Dawley rats; [7]) was 7.5 min, the “AUC0-Tlast [SE]” value (Sprague Dawley rats; [8]) was 169 [21.2] h*ng/mL and the “AUCINF—obs” value (Sprague Dawley rats; [8]) was “(169) h*ng/mL”. The “Cmax [SE]” value (Sprague Dawley rats; [8]) was 795 [115] ng/mL, the “AUC0-Tlast [SE]” value (Sprague Dawley rats; [9]) was 133 [57.2] h*ng/mL and the “AUCINF—obs” value (Sprague Dawley rats; [9]) was “(133) h*ng/mL”. The “Cmax [SE]” value (Sprague Dawley rats; [9]) was 1200 [857] ng/mL, the “AUC0-Tlast [SE]” value (Sprague Dawley rats; [10]) was 228 [49.7] h*ng/mL and the “AUCINF—obs” value (Sprague Dawley rats; [10]) was “(228) h*ng/mL”. For the same compound, the “Cmax [SE]” value (Sprague Dawley rats; [10]) was 1310 [802] ng/mL, the t1/2 (Sprague Dawley rats; [10]) was 9.36 min and the “AUC0-Tlast [SE]” value (Sprague Dawley rats; [11]) was 1030 [114] h*ng/mL. For the same compound, the “AUCINF—obs” value (Sprague Dawley rats; [11]) was “(1040) h*ng/mL”, the “Cmax [SE]” value (Sprague Dawley rats; [11]) was 7010 [1010] ng/mL and the “AUC0-Tlast [SE]” value (Sprague Dawley rats; [12]) was 155 [53.8] h*ng/mL. For the same compound, the “AUCINF—obs” value (Sprague Dawley rats; [12]) was “(156) h*ng/mL”, the “Cmax [SE]” value (Sprague Dawley rats; [12]) was 870 [361] ng/mL and the t1/2 (Sprague Dawley rats; [12]) was 7.8 min. The “AUC0-Tlast [SE]” value (Sprague Dawley rats; [13]) was 391 [228] h*ng/mL, the “AUCINF—obs” value (Sprague Dawley rats; [13]) was “(392) h*ng/mL” and the “Cmax [SE]” value (Sprague Dawley rats; [13]) was 3290 [2510] ng/mL. The t1/2 (Sprague Dawley rats; [13]) was 6.96 min, the AUC0-Tlast (Beagle dogs; [14]) was 104 ng·h/mL and the “AUCINF—obs” value (Beagle dogs; [14]) was 106 ng·h/mL. For the same compound, the t1/2 (Beagle dogs; [14]) was 18.7 min, the AUC0-Tlast (Beagle dogs; [15]) was 77.9 ng·h/mL and the “AUCINF—obs” value (Beagle dogs; [15]) was 80.9 ng·h/mL. The t1/2 (Beagle dogs; [15]) was 34.3 min, the AUC0-Tlast (Beagle dogs; [16]) was 86.4 ng·h/mL and the “AUCINF—obs” value (Beagle dogs; [16]) was 95.9 ng·h/mL. For the same compound, the Cmax (Beagle dogs; [16]) was 196 ng/mL, the AUC0-Tlast (Beagle dogs; [17]) was 70.6 ng·h/mL and the “AUCINF—obs” value (Beagle dogs; [17]) was 77.7 ng·h/mL. For the same compound, the Cmax (Beagle dogs; [17]) was 285 ng/mL, the AUC0-Tlast (Beagle dogs; [18]) was 152 ng·h/mL and the Cmax (Beagle dogs; [18]) was 300 ng/mL. The t1/2 (Beagle dogs; [18]) was 35.7 min, the t1/2 (Beagle dogs; intranasal 0.8 mg/kg/day, Day 14, Female) was 95.4 min and the AUC0-Tlast (Beagle dogs; [19]) was 298 ng·h/mL. For the same compound, the “AUCINF—obs” value (Beagle dogs; [19]) was 322 ng·h/mL, the Cmax (Beagle dogs; [19]) was 411 ng/mL and the t1/2 (Beagle dogs; [19]) was 79.2 min.
